The values that follow come from patent publication US12319676B2, “Substituted amide compounds useful as farnesoid X receptor modulators” (BRISTOL-MYERS SQUIBB COMPANY, priority 2019, dated 2025).

SMILES strings stand for the structures.

The assay deals with T1, human FXR (Homo sapiens, UniProt Q96RI1).
T1 construct: expressed in transfected cells; host or cells: HEK293 cells stably carrying a 5xGal4 response element-luciferase reporter, transiently transfected with pcDNA3.1-Gal4-FXR
T1 sequence (Q96RI1 262-486 limits assumed): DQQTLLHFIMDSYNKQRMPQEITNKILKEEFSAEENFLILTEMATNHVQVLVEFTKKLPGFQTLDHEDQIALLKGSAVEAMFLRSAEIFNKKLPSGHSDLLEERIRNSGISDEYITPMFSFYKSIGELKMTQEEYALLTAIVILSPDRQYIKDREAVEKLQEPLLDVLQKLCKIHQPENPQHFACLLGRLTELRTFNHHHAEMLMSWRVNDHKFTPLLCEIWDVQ
As to the kind of experiment: transient human FXR/Gal4-luciferase reporter assay. The class given is cell-based. As to conditions: Gal4-hFXR fusion construct, luciferase reporter in HEK293 cells; overnight incubation; response as percentage of 8 μM GW-4064 control. In short, it runs like this: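 HEK293 cells stably carrying a 5×Gal4-response-element firefly luciferase reporter were transiently transfected with a Gal4 DBD-human FXR LBD fusion, then treated overnight with compounds at 37 °C. Steady-Glo luminescence, minus DMSO background, was expressed as percent of the response to 8 μM GW-4064.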
On the technique in general: A reporter such as luciferase makes a cellular process visible.
Turning to `CC(C)(C)c1nc(C23CCC(CN(C(=O)C45CC(F)(C4)C5)c4cccc(OCC#N)c4)(CC2)CC3)no1` [Example 111, N-((4-(5-(tert-butyl)-1,2,4-oxadiazol-3-yl)bicyclo[2.2.2]octan-1-yl)methyl)-N-(3-(cyanomethoxy)phenyl)-3-fluorobicyclo[1.1.1]pentane-1-carboxamide], the EC50 (as a rule, the concentration giving half of the maximal effect) is 618 nM. To `CC(C)(O)COc1cccc(N(CC23CCC(c4noc(C(C)(C)C)n4)(CC2)CC3)C(=O)C23CC(F)(C2)C3)c1` [Example 112, N-((4-(5-(tert-butyl)-1,2,4-oxadiazol-3-yl)bicyclo[2.2.2]octan-1-yl)methyl)-3-fluoro-N-(3-(2-hydroxy-2-methylpropoxy)phenyl)bicyclo[1.1.1]pentane-1-carboxamide] belongs 63 nM. To `CC(C)(Oc1cccc(N(CC23CCC(c4noc(C(C)(C)C)n4)(CC2)CC3)C(=O)C23CC(F)(C2)C3)c1)C(=O)O` [Example 113, 2-(3-(N-((4-(5-(tert-butyl)-1,2,4-oxadiazol-3-yl)bicyclo[2.2.2]octan-1-yl)methyl)-3-fluorobicyclo[1.1.1]pentane-1-carboxamido)phenoxy)-2-methylpropanoic acid] belongs 2000 nM; to `N#Cc1cccc(N(CC23CCC(c4noc(C(F)(F)F)n4)(CC2)CC3)C(=O)C23CC(F)(C2)C3)c1` [Example 114, N-(3-cyanophenyl)-3-fluoro-N-((4-(5-(trifluoromethyl)-1,2,4-oxadiazol-3-yl)bicyclo[2.2.2]octan-1-yl)methyl)bicyclo[1.1.1]pentane-1-carboxamide], 80 nM; to `N#Cc1cccc(N(CC23CCC(c4noc(C(F)(F)F)n4)(CC2)CC3)C(=O)[C@H]2C[C@](O)(C(F)(F)F)C2)c1` [Example 115, (1S,3S)-N-(3-cyanophenyl)-3-hydroxy-3-(trifluoromethyl)-N-((4-(5-(trifluoromethyl)-1,2,4-oxadiazol-3-yl)bicyclo[2.2.2]octan-1-yl)methyl)cyclobutane-1-carboxamide], 436 nM. Under `N#Cc1cccc(N(CC23CCC(c4noc(C(F)(F)F)n4)(CC2)CC3)C(=O)C2CCOCC2)c1` [Example 116, N-(3-cyanophenyl)-N-((4-(5-(trifluoromethyl)-1,2,4-oxadiazol-3-yl)bicyclo[2.2.2]octan-1-yl)methyl)tetrahydro-2H-pyran-4-carboxamide] stands 518 nM. On to `C[C@]1(O)C[C@@H](C(=O)N(CC23CCC(c4noc(C(F)(F)F)n4)(CC2)CC3)c2cccc(C#N)c2)C1` [Example 117, (1S,3S)-N-(3-cyanophenyl)-3-hydroxy-3-methyl-N-((4-(5-(trifluoromethyl)-1,2,4-oxadiazol-3-yl)bicyclo[2.2.2]octan-1-yl)methyl)cyclobutane-1-carboxamide], for which a half-maximal response (EC50) required 1350 nM. Under `CC(C)(C)c1nc(C23CCC(CN(C(=O)C45CC(F)(C4)C5)c4cccc(Oc5ncc(OC(F)F)cn5)c4)(CC2)CC3)no1` [Example 118, N-((4-(5-(tert-butyl)-1,2,4-oxadiazol-3-yl)bicyclo[2.2.2]octan-1-yl)methyl)-N-(3-((5-(difluoromethoxy)pyrimidin-2-yl)oxy)phenyl)-3-fluorobicyclo[1.1.1]pentane-1-carboxamide] stands 361 nM. Under `CC(C)(C)c1nc(C23CCC(CN(C(=O)C45CC(F)(C4)C5)c4cccc(Oc5ccc(OC(F)F)cn5)c4)(CC2)CC3)no1` [Example 119, N-((4-(5-(tert-butyl)-1,2,4-oxadiazol-3-yl)bicyclo[2.2.2]octan-1-yl)methyl)-N-(3-((5-(difluoromethoxy)pyridin-2-yl)oxy)phenyl)-3-fluorobicyclo[1.1.1]pentane-1-carboxamide] stands 536 nM; under `CC(F)(F)c1nc(C23CCC(CN(C(=O)C45CC(F)(C4)C5)c4cccc(C(=O)O)c4)(CC2)CC3)no1` [Example 120, 3-(N-((4-(5-(1,1-difluoroethyl)-1,2,4-oxadiazol-3-yl)bicyclo[2.2.2]octan-1-yl)methyl)-3-fluorobicyclo[1.1.1]pentane-1-carboxamido)benzoic acid], 4000 nM; under `CC(C)(C)c1noc(C23CCC(CN(C(=O)C45CC(F)(C4)C5)c4ccc(F)c(C(N)=O)c4)(CC2)CC3)n1` [Example 121, N-((4-(3-(tert-butyl)-1,2,4-oxadiazol-5-yl)bicyclo[2.2.2]octan-1-yl)methyl)-N-(3-carbamoyl-4-fluorophenyl)-3-fluorobicyclo[1.1.1]pentane-1-carboxamide], 412 nM. For the compound `CCNC(=O)c1cc(N(CC23CCC(c4nc(C(C)(C)C)no4)(CC2)CC3)C(=O)C23CC(F)(C2)C3)ccc1F` [Example 122, N-((4-(3-(tert-butyl)-1,2,4-oxadiazol-5-yl)bicyclo[2.2.2]octan-1-yl)methyl)-N-(3-(ethylcarbamoyl)-4-fluorophenyl)-3-fluorobicyclo[1.1.1]pentane-1-carboxamide], the response was half-maximal at 123 nM (EC50). Under `CC(C)Oc1cccc(N(CC23CCC(c4nc(C(C)(C)C)no4)(CC2)CC3)C(=O)[C@H]2C[C@](O)(C(F)(F)F)C2)c1` [Example 123, (1S,3S)—N-((4-(3-(tert-butyl)-1,2,4-oxadiazol-5-yl)bicyclo[2.2.2]octan-1-yl)methyl)-3-hydroxy-N-(3-isopropoxyphenyl)-3-(trifluoromethyl)cyclobutane-1-carboxamide] stands 2000 nM. Under `CC(C)Oc1cccc(N(CC23CCC(c4nc(C(C)(C)C)no4)(CC2)CC3)C(=O)C23CC(F)(C2)C3)c1` [Example 124, N-((4-(3-(tert-butyl)-1,2,4-oxadiazol-5-yl)bicyclo[2.2.2]octan-1-yl)methyl)-3-fluoro-N-(3-isopropoxyphenyl)bicyclo[1.1.1]pentane-1-carboxamide] stands 2000 nM; under `CC(C)Oc1cccc(N(CC23CCC(c4noc(C(C)(F)F)n4)(CC2)CC3)C(=O)[C@H]2C[C@@](C)(O)C2)c1` [Example 125, (1S,3S)—N-((4-(5-(1,1-difluoroethyl)-1,2,4-oxadiazol-3-yl)bicyclo[2.2.2]octan-1-yl)methyl)-3-hydroxy-N-(3-isopropoxyphenyl)-3-methylcyclobutane-1-carboxamide], 1520 nM. As to `CC(C)Oc1cccc(N(CC23CCC(c4noc(C(C)(F)F)n4)(CC2)CC3)C(=O)[C@H]2C[C@](O)(C(F)(F)F)C2)c1` [Example 126, (1S,3S)-N-((4-(5-(1,1-difluoroethyl)-1,2,4-oxadiazol-3-yl)bicyclo[2..2.2]octan-1-yl)methyl)-3-hydroxy-N-(3-isopropoxyphenyl)-3-(trifluoromethyl)cyclobutane-1-carboxamide], the response was half-maximal at 610 nM (EC50). The compound `CC(C)Oc1cccc(N(CC23CCC(c4noc(C(C)(F)F)n4)(CC2)CC3)C(=O)C23CC(F)(C2)C3)c1` [Example 127, N-((4-(5-(1,1-difluoroethyl)-1,2,4-oxadiazol-3-yl)bicyclo[2.2.2]octan-1-yl)methyl)-3-fluoro-N-(3-isopropoxyphenyl)bicyclo[1.1.1]pentane-1-carboxamide] gave an EC50 of 156 nM. With `CC(C)(C)c1noc(C23CCC(CN(C(=O)C45CC(F)(C4)C5)c4ccc(F)c(C(C)(C)O)c4)(CC2)CC3)n1` [Example 128, N-((4-(3-(tert-butyl)-1,2,4-oxadiazol-5-yl)bicyclo[2.2.2]octan-1-yl)methyl)-3-fluoro-N-(4-fluoro-3-(2-hydroxypropan-2-yl)phenyl)bicyclo[1.1.1]pentane-1-carboxamide], the EC50 came to 4000 nM. This EC50 lies about 26-fold higher than the previous one.
